Measured values as given in publication PMC7937321 (Genes and Environment, 2021).
Like-named read-outs stand apart in the source and are kept apart here.

Experiments:
[1] = tested on: TK6 cells; test: Toxicoproteomic analysis of treated TK6 cells (LC-MS/MS, DEPs, enrichment analysis); assay type: cell-based, human; conditions: specific DEPs 24-h 800 μg/mL
Procedure: We conducted a proteomic analysis using TK6 cells treated by 4-nitroanthranilic acid that was negative in the short-term treatment and positive in the 24 h treatment. HC Blue No. 2 gave also same test results. […]
Raw MS data were processed by MaxQuant (version 1.6.3.3) supported by the Andromeda search engine for peak detection and quantification. […]
All NaN values of log2 LFQ intensities were converted to − 7, which is approximately equivalent to the minimum value of the LFQ intensities observed in the present study. Then, fold change values were calculated by dividing LFQ intensities (antilogarithms of the log2 LFQ intensities) into sample treated groups by intensities in non-treated (control) groups, respectively (4 and 24 h treated groups). Then, log2 fold changes were calculated. […]

[2] = tested on: TA1538, TA100, TA98, TA97, TA1535; conditions: cited from earlier work

Question: Which results are given for Nc1cc([N+](=O)[O-])ccc1C(=O)O [4-Nitroanthranilic acid]?
Answer: Count: GO:0005515 ~ protein binding ([1]; Down-regulated): 34; Count: GO:0005515 ~ protein binding ([1]; Up-regulated): 88; The Highest Specific Activity and the Strain ([2]; TA100 with S9, ref Table 2): 2830 revertants/mg; The Highest Specific Activity and the Strain ([2]; TA1535 with S9, ref [33]): 3600 revertants/mg; Bacterial reverse mutation assay, With S9 ([2]; with S9, ref [18]-[40], Table 2): Pos; Bacterial reverse mutation assay, Without S9 ([2]; without S9, ref [18]-[40], Table 2): Pos
